Measured values as given in patent publication US12291502B2, “Topoisomerase II-alpha inhibitors and methods of treating cancer using the same” (The Regents of the University of Colorado, priority 2019, dated 2025).
Read-outs that look alike come from different tables or passages of the source.

How the values were obtained:
[1] = test system: E-cadherin promoter activity (EcadPro-RFP) in SW620 cells; assay: EcadPro-RFP (mCherry) EMT reporter assay; type: cell-based; conditions: Homo sapiens, SW-620; Table 3; SW620 Cells; read-out: E-cadherin Up-regulation EC50
Description: (§1) VimPro-GFP and EcadPro-RFP reporter assays. […] 35(38): p. 4990-9.]
as §1

[2] = test system: vimentin promoter activity (VimPro-GFP) in SW620 cells; assay: VimPro-GFP EMT reporter assay; conditions: Homo sapiens, SW-620, read-out: Vimentin Down-regulation EC50 (μM)
Method: VimPro-GFP and EcadPro-mCherry reporter assays. VimPiro-GFP: SW620 cells were first transduced with NucLight Red virus (Essen BioSciences) and selected with Zeocin at 200 μg/mL, and then transduced with pCDH-VimPro-GFP-EF1-puro virus and selected with puromycin at 4 μg/mL. The dual fluorescently labeled cells were plated and treated in 3D tumor organoid as described. Tumor organoid images were recorded every 2 hours over a 72 hours period using an incucyte ZOOM content imaging system (Essen BioSciences) or PerkinElmer Phenix imager (PerkinElmer).
Analogs were also assessed for their ability to modulate or reverse EMT using VimPro-GFP and EcadPro-RFP SW620 reporter cells cultured as tumor organoids, determining EC50 dose responses over 72 hours (Table 2).
VimPro-GFP and EcadPro-RFP reporter assays. Stable VimPro-GFP or EcadPro-RFP SW620 reporter cells were generated using pCDH-VimPro-GFP-EF1-puro virus or pCDH-EcadPro-mCherry-EF1-puro virus as previously reported. […] Transduced cells were selected with puromycin at 2 μg/mL. The stable fluorescent labeled reporter cells were then used to generate tumor organoids as described. Tumor organoids were then treated with TOP2A inhibitors at 10 μM for an additional 72 h. Following treatment, tumor organoids were stained with 16 μM of Hoechst 33342 for 1 h, which functions as a nuclear stain for imaging segmentation. Images were taken with a 5× air objective. Z stacks were set at 20 μm apart for a total of 7 layers. Imaging analysis was performed using an Opera Phenix high content screening (HCS) system and Harmony high-content imaging and analysis software interface (PerkinElmer, MA). Nuclei were identified with Hoechst 33342 stain within each layer, and cells were found with either GFP or mCherry channel. The intensities of each fluorescence channel within the cells were calculated and thresholds were set based on the background intensities. Percentages of GFP or mCherry positive cells were calculated and normalized to the DMSO treated group.
VimPro-GFP and EcadPro-RFP reporter assays. Stable VimPro-GFP or EcadPro-RFP SW620 reporter cells were generated using pCDH-VimPro-GFP-EF1-puro virus or pCDH-EcadPro-mCherry-EF1-puro virus as previously reported. […] Transduced cells were selected with puromycin at 2 μg/mL. The stable fluorescent labeled reporter cells were then used to generate tumor organoids as described. Tumor organoids were then treated with TOP2A inhibitors at 10 μM for an additional 72 h. Following treatment, tumor organoids were stained with 16 μM of Hoechst 33342 for 1 h, which functions as a nuclear stain for imaging segmentation. Images were taken with a 5× air objective.

[3] = target: T1, Human TOP2A (Homo sapiens, UniProt P11388); assay: TOP2A DNA decatenation assay (kDNA, agarose gel); type: biochemical; conditions: for TOP2A inhibition, result in words: decatenation screen at 30 μM
T1 construct: purchased TopoGEN (Buena Vista, CO)
T1 sequence (P11388 whole entry): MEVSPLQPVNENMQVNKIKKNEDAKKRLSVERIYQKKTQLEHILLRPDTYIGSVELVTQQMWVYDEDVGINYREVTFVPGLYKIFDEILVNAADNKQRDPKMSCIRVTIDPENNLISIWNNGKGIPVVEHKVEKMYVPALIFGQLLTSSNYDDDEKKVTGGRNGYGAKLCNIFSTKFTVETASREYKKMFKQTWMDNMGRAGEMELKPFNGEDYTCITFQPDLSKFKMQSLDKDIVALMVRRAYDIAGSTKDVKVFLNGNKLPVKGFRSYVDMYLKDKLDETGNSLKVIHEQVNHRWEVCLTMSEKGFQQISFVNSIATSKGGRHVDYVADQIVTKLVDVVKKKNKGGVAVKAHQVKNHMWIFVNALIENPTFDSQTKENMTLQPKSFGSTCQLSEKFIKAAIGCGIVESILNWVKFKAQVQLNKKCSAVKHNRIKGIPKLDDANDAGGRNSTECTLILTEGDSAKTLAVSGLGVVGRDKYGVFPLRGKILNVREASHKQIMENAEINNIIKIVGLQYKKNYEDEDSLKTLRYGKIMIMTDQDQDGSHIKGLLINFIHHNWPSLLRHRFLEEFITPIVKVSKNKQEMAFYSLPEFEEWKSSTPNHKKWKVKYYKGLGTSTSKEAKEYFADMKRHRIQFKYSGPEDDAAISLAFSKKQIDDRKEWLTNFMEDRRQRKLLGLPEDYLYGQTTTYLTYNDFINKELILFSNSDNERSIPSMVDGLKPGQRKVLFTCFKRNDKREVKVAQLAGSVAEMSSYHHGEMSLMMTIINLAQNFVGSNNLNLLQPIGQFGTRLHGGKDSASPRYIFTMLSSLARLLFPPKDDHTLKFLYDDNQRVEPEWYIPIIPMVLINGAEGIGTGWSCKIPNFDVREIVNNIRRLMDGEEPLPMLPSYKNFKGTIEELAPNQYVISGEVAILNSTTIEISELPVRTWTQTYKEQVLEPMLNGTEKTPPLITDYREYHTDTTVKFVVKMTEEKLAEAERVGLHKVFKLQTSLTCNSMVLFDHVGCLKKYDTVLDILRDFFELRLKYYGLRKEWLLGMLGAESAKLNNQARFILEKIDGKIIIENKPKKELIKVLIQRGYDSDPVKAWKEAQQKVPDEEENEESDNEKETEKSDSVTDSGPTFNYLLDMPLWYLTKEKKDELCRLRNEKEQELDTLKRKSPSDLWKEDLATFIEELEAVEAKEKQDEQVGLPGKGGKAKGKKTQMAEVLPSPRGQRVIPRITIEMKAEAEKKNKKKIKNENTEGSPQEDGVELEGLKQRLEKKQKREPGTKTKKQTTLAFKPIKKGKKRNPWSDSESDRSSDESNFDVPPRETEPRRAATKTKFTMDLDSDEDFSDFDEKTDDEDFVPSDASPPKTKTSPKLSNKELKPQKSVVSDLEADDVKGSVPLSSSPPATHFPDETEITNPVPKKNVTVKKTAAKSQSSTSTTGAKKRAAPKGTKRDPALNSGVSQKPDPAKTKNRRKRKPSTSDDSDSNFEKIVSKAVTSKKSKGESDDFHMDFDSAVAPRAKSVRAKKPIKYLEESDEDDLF
Method: Inhibition of TOP2A activity. Human TOP2A, kDNA, and assay buffers were obtained from TopoGEN (Buena Vista, CO). The synthesized compounds were screened for their TOP2A inhibitory activity by the intensity of DNA decatenation bands on a DNA gel when compared to the vehicle. Compounds were initially incubated with TOP2A (3 U/reaction) for 20 min at a 30 μM and 1.2% DMSO concentration in a 37° C. incubator without CO2.
The decatenation reaction was initiated immediately after by adding 2 mM ATP and 35 ng/reaction of kDNA, then incubated for 1 hour in a 37° C. water bath. The samples were loaded into a 0.8% agarose gel in 1× Tris-Borate-EDTA (TBE) at a 0.2 μg/mL ethidium bromide concentration and allowed to run in an electrophoretic chamber for 1 hour at 100V. Compounds with the highest inhibitory activity were selected for 2-fold serial dilution dose-response assays (58.6 nM-30 μM). The dose-response assays followed the same protocol with the exception of 4 U/reaction of TOP2A.
Inhibition studies of TOP2A and observed structure activity relationships (SAR). DNA catenation/decatenation or linking/unlinking of DNA is one of the main TOP2A functions essential for regulating DNA topology, and this is ATP dependent. […] Thus, as a starting point, the synthesized analogs were screened against TOP2A-dependent decatenation using 30 μM fixed concentrations, and the DNA from reactions were resolved on 0.8% agarose gels containing ethidium bromide.
Moreover, these studies provided interesting SAR, which shed light on the potential lead drug target binding interactions and affinity, biological activity, and future drug design optimization with this unique class of TOP2A inhibitors.
(§2) TOP2A decatenation assay. Human TOP2A, kDNA, and assay buffers were obtained from TopoGEN (Buena Vista, CO). The synthesized compounds were screened for their TOP2A inhibitory activity by the intensity of DNA decatenation bands on a DNA gel when compared to the vehicle. Compounds were initially incubated with TOP2A (3 U/reaction) for 20 min at a 30 μM and 1.2% DMSO concentration in a 37° C. incubator without CO2. The decatenation reaction was initiated immediately after by adding 2 mM ATP and 35 ng/reaction of kDNA, then incubated for 1 h in a 37° C. water bath. The samples were loaded into a 0.8% agarose gel in 1× Tris-Borate-EDTA (TBE) at a 0.2 μg/mL ethidium bromide concentration and allowed to run in an electrophoretic chamber for 1 h at 100V. Compounds with the highest inhibitory activity were selected for 2-fold serial dilution dose-response assays (58.6 nM-30 μM). The dose-response assays followed the same protocol with the exception of 4 U/reaction of TOP2A,
as §2, with “assays (53.6” for “assays (58.6”, “of TOP2A.” for “of TOP2A,”

[4] = test system: TOP2A-dependent TCF-transcription in SW620-TOP tumor organoids; assay: TCF (TOPflash) reporter assay in 3D tumor organoids; type: cell-based; conditions: SW620-TOP tumor organoids, 72 hours; read-out: IC50 inhibition of TCF-transcription
Method: TCF reporter assay in 3D Tumor organoid. Stable engineered cells containing pCDH-TOPflash-luc-EF1-puro were used to generate tumor organoid arrayed in 96-well plates and treated for 72 hours. One-Glo™ luciferase reagent and CellTiter-Glo™ 3D cell viability reagent (Promega) were used to determine the TCF reporter activity in viable cells.
After characterizing 3 and 7 as TOP2A ATP-competitive inhibitors, these compounds were next tested for their ability to inhibit TOP2A-dependent TCF-transcription using the well characterized TOPflash (TOP) luminescent reporter, which was used to generate a stably transduced SW620-TOP reporter cells as described previously (Zhou, et al., Oncogene 2016, 35:4990-9). These cells were used to generate single 3D tumor organoids (700 μm in diameter) uniformly arrayed in 96-well plates, which mimic aspects of tumor function observed in vivo. […] Like neo, the mode of action of compounds 3 and 7 also results in significant antitumor activity (FIGS. 3E-3H). […] In other words, the activity of 3 and 7 is long lasting, suppressing CSC stemness and related tumorigenicity. EMT is a major driving force promoting tumor cell invasion and metastasis. […] Tumor organoids were dissociated, and viable cells were washed and plated into the top chamber of 96-well invasion plate coated with Matrigel and incubated for an additional 72 hours without adding any additional compound. […] Taken together, the biological activity of 3 and 7 is consistent with the activity of neo, inhibiting TOP2A-dependent TCF-transcription that in turn reverses EMT while inhibiting the associated tumorigenic properties of mCRC.
A similar trend in IC50 values was observed compared to TOP2A enzyme studies, further supporting our proposed mechanism of action as inhibition of TOP2A-dependent TCF-transcription.
3D Tumor organoid TOPflash reporter assay. […] 35(38): p. 4990-9.] were used to generate tumor organoids arrayed in 96-well plates and treated for 72 h with TOP2A inhibitors. One-Glo™ luciferase reagent and CellTiter-Glo™ 3D cell viability reagent (Promega, WI) were used to determine the TCF reporter activity in viable cells. Briefly, reagents were added to the spheroids at 1:1 ratio (v:v) and the plates were placed on an orbital shaker (300 rpm) for 10 min at room temperature before the luminescence was read with Envision plate reader (PerkinElmer, MA). TCF reporter activity was normalized to organoid viability and inhibitors treated conditions were normalized to DMSO treated controls.

[5] = 1 h, Table 1, decatenation, 30 μM fixed concentration, read-out: % Inhibition TOP2A (30 μM)
[6] = Table 1, decatenation dose response, read-out: % Inhibition TOP2A (IC50 Values)
[7] = Table 1, decatenation, 30 μM fixed concentration
[8] = Table 3, 30 μM, read-out: % TOP2A Decatenation inhibition (30 μM)
[9] = Table 3, read-out: TOP2A Inhibition IC50

Row | SMILES | EC50 [1] [µM] | EC50 [2] [µM] | TOP2A inhibition, result in words [3] | % Inhibition TOP2A (30 μM) [3, 7] [%] | further results
1 | CC(=O)Nc1ccc2c(Nc3cccc(C(F)(F)F)c3)ccnc2c1O [AA-29-157] | 180 | 29.9 | – | – | –
2 | CC(=O)Nc1ccc2c(-c3cccc(F)c3)ccnc2c1O [Analog 29] | – | – | potent inhibition of TOP2A activity | – | inhibition at 30 µM [3, 5]: 100%; IC50 [3, 6]: 7.8 µM
3 | CC(=O)Nc1ccc2c(-c3cc(C(F)(F)F)ccc3O)ccnc2c1O [Analog 37] | – | – | excellent inhibitory activity | – | inhibition at 30 µM [3, 5]: 100%; IC50 [3, 6]: 9 µM
4 | O=C(CN1CCOCC1)Nc1ccc2c(-c3cc(F)ccc3O)ccnc2c1O [Analog 41] | – | – | – | 4.0 | IC50 [4]: 4.7 µM
5 | CC(=O)Nc1ccc2c(Nc3ccccc3)ccnc2c1O [AA-29-148] | 7.6 | 25.9 | – | – | inhibition at 30 µM [3, 8]: 100%
6 | CC(=O)Nc1ccc2c(-c3cccc(O)c3)ccnc2c1O [Analog 33] | – | – | – | 0.0 | –
7 | CC(=O)Nc1cccc(-c2ccnc3c(O)c(NC(C)=O)ccc23)c1 [Analog 36] | – | – | significant loss of activity | 3.0 | –
8 | CC(=O)Nc1ccc2c(-c3ccc(F)cc3)ccnc2c1O [Analog 30] | – | – | the activity is lost | 1.0 | –
9 | CC(=O)Nc1ccc2c(-c3ccco3)ccnc2c1O [Analog 55] | – | – | significant loss of activity | 0.0 | –
10 | CC(=O)Nc1ccccc1-c1ccnc2c(O)c(NC(=O)CCN3CCOCC3)ccc12 [Analog 43] | – | – | – | 1.0 | –
11 | O=C(CN1CCOCC1)Nc1ccc2c(NC3CCCCC3)ccnc2c1O [AA-34-171] | 48.2 | 17.5 | – | – | inhibition at 30 µM [3, 8]: 62%
12 | CC(=O)Nc1ccc2c(NC3CCC3)ccnc2c1O [AA-34-132] | 100 | 27.7 | – | – | inhibition at 30 µM [3, 8]: 94%; IC50 [3, 9]: 6.56 µM
13 | CC(=O)Nc1ccc2c(Nc3ccc(O)cc3F)ccnc2c1O [AA-29-172] | 58.5 | 45.9 | – | – | –
14 | CC(=O)Nc1ccc2c(Nc3cccc(F)c3)ccnc2c1O [AA-29-146] | 9.7 | 7.4 | – | – | inhibition at 30 µM [3, 8]: 100%
15 | CC(=O)Nc1ccc2c(NC3CCCCCC3)ccnc2c1O [AA-34-130] | 36.5 | 59 | – | – | inhibition at 30 µM [3, 8]: 100%; IC50 [3, 9]: 1.53 µM
16 | COc1ccc(F)cc1-c1ccnc2c(OC)c(NC(C)=O)ccc12 [Analog 6] | – | – | – | 0.0 | –
17 | CC(=O)Nc1ccc2c(-c3cncnc3)ccnc2c1O [Analog 59] | – | – | – | 0.0 | –
18 | CC(=O)Nc1ccc2c(-c3cccc(C(F)(F)F)c3)ccnc2c1O [Analog 31] | – | – | excellent inhibitory activity | 97.0 | IC50 [3, 6]: 3.4 µM

Row | SMILES | EC50 [1] [µM] | EC50 [2] [µM] | TOP2A inhibition, result in words [3] | % Inhibition TOP2A (30 μM) [3, 7] [%] | further results
19 | O=C(CCN1CCOCC1)Nc1ccc2c(NC3CCCCC3)ccnc2c1O [AA-34-180] | 65.5 | 13 | – | – | inhibition at 30 µM [3, 8]: 0%
20 | CC(C)(C)C(=O)Nc1ccc2c(-c3cc(F)ccc3O)ccnc2c1O [Analog 40] | – | – | – | 0.0 | –
21 | CC(=O)Nc1ccc2c(-c3ccsc3)ccnc2c1O [Analog 58] | – | – | improves activity compared to the 3-furanyl analog 56 | – | inhibition at 30 µM [3, 5]: 92%; IC50 [3, 6]: 5 µM
22 | CC(=O)Nc1ccc2c(Nc3cc(O)ccc3F)ccnc2c1O [AA-29-171] | 139 | 26.6 | – | – | –
23 | O=C(CN1CCOCC1)Nc1ccc2c(-c3cc4ccccc4o3)ccnc2c1O [Analog 60] | – | – | – | – | inhibition at 30 µM [3, 5]: 100%; IC50 [3, 6]: 5 µM
24 | COc1c(NC(C)=O)ccc2c(-c3cc4ccccc4s3)ccnc12 [Analog 45] | – | – | – | – | IC50 [4]: 10.7 µM
25 | CC(=O)Nc1ccc2c(NC3CCCCC3)ccnc2c1O [AA-29-216] | 17.8 | 20.6 | – | – | inhibition at 30 µM [3, 8]: 100%; IC50 [3, 9]: 0.29 µM
26 | CC(=O)Nc1ccc2c(Nc3ccc4[nH]c(C)cc4c3)ccnc2c1O [AA-29-155] | 128 | 9.56 | – | – | –
27 | CC(=O)Nc1ccc2c(Nc3ccc4[nH]ccc4c3)ccnc2c1O [AA-29-136] | 8.4 | 4.1 | – | – | inhibition at 30 µM [3, 8]: 90%
28 | CC(=O)Nc1ccc2c(NC3CCCC3)ccnc2c1O [AA-34-131] | 21.3 | 23 | – | – | inhibition at 30 µM [3, 8]: 92%; IC50 [3, 9]: 2.16 µM
29 | CC(=O)Nc1ccc2c(Nc3ccc(C(F)(F)F)cc3)ccnc2c1O [AA-29-158] | 65.1 | 1.36 | – | – | –
30 | CC(=O)Nc1ccc2c(-c3ccccc3)ccnc2c1O [Analog 28] | – | – | – | 25.0 | –
31 | CC(=O)Nc1ccc2c(Nc3cccc4[nH]ccc34)ccnc2c1O [AA-29-147] | 146 | 14.8 | – | – | –
32 | CC(=O)Nc1ccc2c(-c3cc(Cl)ccc3O)ccnc2c1O [Analog 38] | – | – | no activity was observed | 0.0 | –
33 | CC(=O)Nc1ccccc1-c1ccnc2c(O)c(NC(C)=O)ccc12 [Analog 34] | – | – | significant loss of activity | 1.0 | –
34 | CC(=O)Nc1ccc2c(-c3cc4ccccc4s3)ccnc2c1O [Analog 54] | – | – | inhibition was lost | 0.0 | –
35 | CC(=O)Nc1ccc2c(-c3ccc(C(F)(F)F)cc3)ccnc2c1O [Analog 32] | – | – | excellent inhibitory activity | – | inhibition at 30 µM [3, 5]: 97%; IC50 [3, 6]: 0.7 µM
